From article PMC7128415 (Journal of Clinical Virology, 2004)
Values after ≈ are worked out from the molar mass of the structure shown. Like-named read-outs stand apart in the source and are kept apart here.

Legend:
[1] = system: SARS coronavirus; assay: microbe, parasite or virus in culture; type: cell-based; conditions: Severe acute respiratory syndrome coronavirus, Vero, read-out: EC50 (plaque reduction assay)
[2] = in vivo, cited from earlier work
[3] = in vitro; conditions: rhesus monkey
[4] = system: SARS coronavirus; type: cell-based
[5] = system: SARS coronavirus
[6] = human, in vivo, po
[7] = system: HIV-1 reverse transcriptase; conditions: cited from earlier work
[8] = system: SARS coronavirus; assay: microbe, parasite or virus in culture; conditions: Severe acute respiratory syndrome coronavirus, FRhK-4, 48 h, read-out: EC50 at 48 h
[9] = system: HIV-1; conditions: cited from earlier work
[10] = system: various viruses; conditions: cited from earlier work
[11] = system: SARS-associated virus; conditions: cited from earlier work
[12] = system: rhinovirus, coronavirus, and respiratory syncytial virus; conditions: in vivo; cited from earlier work
[13] = system: CMV; conditions: human, in vivo; cited from earlier work
[14] = system: rhinovirus; conditions: in vivo; cited from earlier work
[15] = system: genital herpes; conditions: in vivo; cited from earlier work

In the case of `O=C(O)[C@H]1O[C@@H](Oc2cc3oc(-c4ccccc4)cc(=O)c3c(O)c2O)[C@H](O)[C@@H](O)[C@@H]1O` [Baicalin, baicalin], the EC50 [1] is listed as 11 mg/L (≈ 24.6 µM), the “Serum level (after oral administration), Cmax” value ([2]; human, po) is listed as “Cmax = 60 ng/ml (189.8 mg per person, in human). The amount (i.e., 189.8 mg per person) used for the experiment is very low” and the “Half life (in humans)” value ([2]; human) is listed as “∼3 h”. For the same molecule, the “Serum level (after intravenous administration), Cmax” value [2] was “Cmax = 74 μg/ml (360 mg per person)”, the CC50 [3] was over 100 mg/L and the “activity in Vero-E6 cell line compared with fRhK-4” value (shortened to “activity … compared with fRhK-4”) [4] was “less active”. For the same molecule, the “EC50 at 48 h” value [5] was 12.5 mg/L (≈ 28 µM), the “SI = CC50/EC50 at 48 h” value [5] was over 4 to 8 and the antiviral activities [5] was “detectable antiviral activities”. The antiviral activity [5] was “showed antiviral activity”, the “inhibitory activities by neutralization tests” value [5] was “detectable inhibitory activities” and the serum concentration [6] was 0.47 µg/mL. For the same molecule, the “inhibition of HIV-1 reverse transcriptase” value [7] was “known to inhibit HIV-1 reverse transcriptase”, the EC50 [8] was 12.5 to 25 mg/L (≈ 28 to 56 µM) and the Antiviral effect [9] was “Inhibition of HIV-1”. The “inhibition of HIV-1” value [9] was “shown to inhibit HIV-1”.

For `O=C(/C=C/c1ccc(O)c(O)c1)O[C@@H]1C[C@](O)(C(=O)O)C[C@@H](O)[C@H]1O` [Chlorogenic acid, chlorogenic acid], the “Serum level (after intravenous administration), Cmax” value [2] is listed as “Cmax = 34 μg/ml (24 mg per person)”, the “inhibitory activities in initial screening” value [5] is listed as “not detectable” and the Antiviral effect [10] is listed as “Inhibition of various viruses”.

For `CC1(C)[C@@H](O[C@H]2O[C@H](C(=O)O)[C@@H](O)[C@H](O)[C@H]2O[C@@H]2O[C@H](C(=O)O)[C@@H](O)[C@H](O)[C@H]2O)CC[C@]2(C)[C@H]3C(=O)C=C4[C@@H]5C[C@@](C)(C(=O)O)CC[C@]5(C)CC[C@@]4(C)[C@]3(C)CC[C@@H]12` [Glycyrrhizin, glycyrrhizin], the Antiviral effect [11] is listed as “Inhibition of SARS-associated virus”, the “activity in Vero-E6 cell lines” value [11] is listed as “reported to be active” and the “antiviral activity against SARS coronavirus” value [11] is listed as “significant antiviral activity”. For the same molecule, the “Half life (in humans)” value ([2]; human) was “∼10 h”, the “Serum level (after intravenous administration), Cmax” value [2] was “Cmax = 80 μg/ml (200 mg per person)” and the CC50 [3] was over 400 mg/L. For the same molecule, the “activity … compared with fRhK-4” value [4] was “more active”, the antiviral activity [5] was “showed antiviral activity” and the “inhibitory activities in initial screening” value [5] was “not detectable”. The EC50 [8] was over 400 mg/L.

With `Cc1cccc(C)c1OCC(=O)N[C@@H](Cc1ccccc1)[C@@H](O)C[C@H](Cc1ccccc1)NC(=O)[C@H](C(C)C)N1CCCNC1=O` [Lopinavir, lopinavir] the EC50 [1] was 6 mg/L (≈ 9.54 µM), the CC50 [3] was 32 mg/L (≈ 50.9 µM) and the “activity … compared with fRhK-4” value [4] was “less active”. For the same molecule, the antiviral activities [5] was “detectable antiviral activities”, the antiviral activity [5] was “showed antiviral activity” and the “inhibitory activities by neutralization tests” value [5] was “detectable inhibitory activities”. It also gave an EC50 [8] of 1 to 4 mg/L (≈ 1.59 to 6.36 µM).

With `NC(=O)c1ncn([C@@H]2O[C@H](CO)[C@@H](O)[C@H]2O)n1` [Ribavirin, ribavirin] the EC50 [1] was 50 mg/L (≈ 205 µM), the CC50 [3] was over 1000 mg/L and the “activity … compared with fRhK-4” value [4] was “less active”. For the same molecule, the “SI = CC50/EC50 at 48 h” value [5] was 5 to >80, the antiviral activities [5] was “detectable antiviral activities” and the antiviral activity [5] was “showed antiviral activity”. For the same molecule, the “inhibitory activities by neutralization tests” value [5] was “detectable inhibitory activities”.

In the case of `CC(N)C12CC3CC(CC(C3)C1)C2` (stereo not shown) [Rimantadine, rimantadine], the EC50 [1] is reported as 7 mg/L (≈ 39 µM), the CC50 [3] is reported as 64 mg/L (≈ 357 µM) and the “activity … compared with fRhK-4” value [4] is reported as “more active”. For the same molecule, the “EC50 at 48 h” value [5] was 16 mg/L (≈ 89.2 µM), the antiviral activities [5] was “detectable antiviral activities” and the antiviral activity [5] was “showed antiviral activity”. For the same molecule, the “inhibitory activities by neutralization tests” value [5] was “detectable inhibitory activities” and the EC50 [8] was 8 to 16 mg/L (≈ 44.6 to 89.2 µM).

With `Nc1nc(NC2CC2)c2ncn([C@H]3C=C[C@@H](CO)C3)c2n1` [abacavir] the “inhibitory activities in initial screening” value [5] was “did not reveal inhibitory activities”.

In the case of `Nc1nc2c(ncn2COCCO)c(=O)[nH]1` [acyclovir], the “inhibitory activities in initial screening” value [5] is reported as “did not reveal inhibitory activities”.

In the case of `NC12CC3CC(CC(C3)C1)C2` [amantadine], the “inhibitory activities in initial screening” value [5] is reported as “did not reveal inhibitory activities”.

With `C[C@H]1[C@H](OC(=O)CCC(=O)O)O[C@@H]2O[C@@]3(C)CC[C@H]4[C@H](C)CC[C@@H]1[C@@]24OO3` [artesunate] the “inhibitory activities in initial screening” value [5] was “not detectable”.

With `Nc1ccn(C[C@@H](CO)OCP(=O)(O)O)c(=O)n1` [cidofovir] the “inhibitory activities in initial screening” value [5] was “did not reveal inhibitory activities”.

For `O=C(O)P(=O)(O)O` [foscarnet], the “inhibitory activities in initial screening” value [5] was “did not reveal inhibitory activities”.

For `Nc1nc(O)c2ncn(COC(CO)CO)c2n1` [ganciclovir], the “inhibitory activities in initial screening” value [5] was “did not reveal inhibitory activities”.

For `Cc1ccnc2c1NC(=O)c1cccnc1N2C1CC1` [nevirapine], the “inhibitory activities in initial screening” value [5] was “did not reveal inhibitory activities”.

With `CC(C)c1nc(CN(C)C(=O)N[C@H](C(=O)N[C@@H](Cc2ccccc2)C[C@H](O)[C@H](Cc2ccccc2)NC(=O)OCc2cncs2)C(C)C)cs1` [ritonavir] the “inhibitory activities in initial screening” value [5] was “did not reveal inhibitory activities”.

For `Cc1cn([C@H]2C=C[C@@H](CO)O2)c(=O)[nH]c1=O` [stavudine], the “inhibitory activities in initial screening” value [5] was “did not reveal inhibitory activities”.

In the case of `Cc1cn([C@H]2C[C@H](N=[N+]=[N-])[C@@H](CO)O2)c(=O)[nH]c1=O` [zidovudine], the “inhibitory activities in initial screening” value [5] is reported as “did not reveal inhibitory activities”.

In the case of interferon-alpha, the “protection against experimental human infection” value [12] is listed as “protect”, the “preventing CMV infections or treating CMV pneumonia” value [13] is listed as “not effective” and the “protection against rhinovirus-induced common cold” value [14] is listed as “protective”. The “reduction in symptoms or lesion duration of genital herpes” value [15] was “did not produce a consistent reduction”.

B1: Interferon-gamma: Interferon-gamma, reported in the literature (protein, UniProt P01579 24-161, looked up)
Interferon gamma: QDPYVKEAENLKKYFNAGHSDVADNGTLFLGILKNWKEESDRKIMQSQIVSFYFKLFKNFKDDQSIQKSVETIKEDMNVKFFNSNKKKRDDFEKLTNYSVTDLNVQRKAIHELIQVMAELSPAAKTGKRKRSQMLFRG
In the case of B1, the “antiviral activity against SARS coronavirus” value [11] is listed as “not to possess antiviral activity”.
